This note sets out measurements from patent EP4786540A1, “POLYMER COMPOSITION AND METHOD FOR PRODUCING SAME, FORMULATION, CROSSLINKED PRODUCT, AND TIRE” (priority 2023, dated 2025).

Data set [1] can be described thus: Solubility of acid or metal salt thereof in cyclohexane (visual observation). As for the experimental part:
The acid component (B) preferably has high solubility in a good solvent for the modified conjugated diene-based polymer (A).
An acid or a metal salt thereof (1.0 g) was added to cyclohexane (1.0 L), and the system was tightly closed. The contents were mixed at 25°C for 5 minutes. The resultant liquid mixture was allowed to stand for 10 minutes, and then the state of the liquid mixture was visually observed.

A short description of data set [2]: pH of the acid forming the acid component (pH meter, 20°C). It is filed as physicochemical. The following applies: organic acid 1.0 g in purified water 1.0 L, inorganic acid 0.1-mol/L aqueous solution, for a salt, pH of the acid forming it. As to the method: No particular limitation is imposed on the acidity of the acid forming the acid component (B), which is specifically the pH of the acid forming the acid component (B) at 20°C, is for example, 1 to 6. […] When the acid component (B) is an inorganic acid, the pH corresponds to a value measured by use of a […] aqueous solution. In the case of a metal salt of the acid, the pH corresponds to the pH of the acid forming the metal salt thereof.
The pH of a liquid prepared by mixing an acid (1.0 g) and purified water (1.0 L) was measured at 20°C by means of a pH meter (product of HORIBA, Ltd.). In the case of an organic acid salt, the pH of the acid forming the salt was measured.
The pH of a 0.1-mol/L aqueous solution of the acid employed was measured at 20°C in the same manner as employed above.

As for `CCCCC(CC)COP(=O)(O)OCC(CC)CCCC` (centres unmarked) [b-4, bis(2-ethylhexyl) phosphate], the “solubility in cyclohexane at 25°C” value in data set [1] (1.0 g in 1.0 L cyclohexane, mixed 5 minutes, stood 10 minutes, visual) was not below 1000 µg/mL.

Consider `Cl` [b-3, hydrochloric acid], for which the pH in data set [2] came to 1.

For the compound `CCCCC(CC)C(=O)O` (centres unmarked) [b-1, 2-ethylhexanonic acid], in data set [2], the pH was 3.

Broadly, the solubility is how much of the substance goes into solution per volume. Consider `O=C(O)c1ccccc1C(=O)O` [b-2, phthalic acid], for which the pH in data set [2] is reported as 4. Moreover, the solubility at 5 min in data set [1] (25 °C, organic solvent or mixture, thermodynamic from solid) is not below 1000 µg/mL.
